# Patent publication US9434670B2, “Family of aryl, heteroaryl, O-aryl and O-heteroaryl carbasugars” (TFCHEM, priority 2011, dated 2016)
# Assays:
# [1] = system: 18 hrs fasted female CD1 mice; assay: Decrease of blood glucose excursions following oral glucose challenge (oral glucose tolerance test); type: in vivo
# Experimental: As experimental animal, 18 hrs fasted female CD1 mice (CDM or Charles River) were used. A test compound was dissolved in the vehicle (5% N-methyl pyrrolidone, 20% PEG 400, 75% 20 mM Na4P2O7 buffer, v/v/v) at the concentration of 1 mg/mL. After the body weights of the mice were measured and the mice randomized, the test article was orally administered at the dose of 1 mg/kg, 3 mg/kg and 10 mg/kg. For control, just the vehicle (5% N-methyl pyrrolidone, 20% PEG 400, 75% 20 mM Na4P2O7 buffer, v/v/v) was orally administered. 15 min after this oral administration, a 20% glucose solution in deionised water was orally administered to all mice. The oral administration was performed with gastric tube for mice and a 1 mL syringe. The minimum count in one group was 3 but could reach 5 for some groups. Collection of the blood was performed via the saphenous vein. Blood was collected at 5, 10, 30, 45, 60 and 120 min post glucose challenge. One experiment consisted in administrating the test article 18 hrs prior to a glucose challenge i.e. 18 hrs post po of test article. The blood glucose concentration was measured using Johnson and Johnson's OneTouch® Ultra Blood Glucose Monitoring System. The glucose concentrations for controls and test articles at the different time points were averaged using Excel 2007 and plotted using GraphPad Prism 5.
# [2] = system: female CD1 mice; assay: Facilitatory effect on urinary glucose excretion after oral administration; type: in vivo; details: 3 mg/kg po
# Experimental: As experimental animal, female CD1 mice (CDM or Charles River) were used. A test compound was dissolved in the vehicle (5% N-methyl pyrrolidone, 20% PEG 400, 75% 20 mM Na4P2O7 buffer, v/v/v) at the concentration of 1 mg/mL After the body weights of the mice were measured and the mice randomized, the test article was orally administered at the dose of 1 mg/kg, 3 mg/kg and 10 mg/kg. For control, just the vehicle (5% N-methyl pyrrolidone, 20% PEG 400, 75% 20 mM Na4P2O7 buffer, v/v/v) was orally administered. The oral administration was performed with gastric tube for mice and a 1 mL syringe. The minimum count in one group was 3 but could reach 12 for some groups. Collection of the urine was performed manually by gentling massaging the abdomen in order to collect urine (3 μL) via a calibrated pipette. Urine was collected at 1, 2, 4, 6, 8 and then 16, 18, 20, 22, 24, 26 and 28 hrs. The urine glucose concentration was measured using a WAKO glucose kit as follows: 3 μL of urine was deposited into a 96-well micro plate for spectrometric readout. The urine aliquot was diluted with 350 μL of the WAKO working solution. […] The absorbance of the 96-well plates were then read at 505 nm using a BioTek SynergyMX plate fluorometer/absorbance photometer and the glucose concentration was calculated. […]
# [3] = system: β-glucosidase from Almonds; assay: Enzymatic stability against glycosidase, HPLC analysis after incubation with β-glucosidase; type: in vitro ADME; details: for degradation in the presence of β-glucosidase (in words): 4 h at 37° C., phosphate buffer pH 7, 10 U β-glucosidase
# Description: The enzymatic stability assay has been performed with compound 26 according to the invention and compound A used as a reference compound to control the efficacy of the β-glucosidase. The sergliflozin-A stability has also been evaluated in order to compare the improvement of metabolic stability obtained through the replacement of the intracyclic oxygen atom of the glucose moiety by a CF2 moiety.
# All the compounds have been treated with β-glucosidase. The stability of compound 26 and Sergliflozin-A has been assessed by HPLC analysis after incubation with β-glucosidase.
# A Gilson HPLC system was used, equipped with a manual injection system (V=20 μL), a Diode Array Detector (DAD172) set at a wavelength of 230 nm and a 150 mm×4.6 mm, 5 μm HICHROM Kromasil 100-5C18 reverse phase column. A linear HPLC binary gradient was used as follows: solvent A was water and solvent B was acetonitrile. Following the injection of 20 μL of a sample, solvent B was held at 20% for 3 min, increased from 20% to 90% in 17 min, held at 90% for 4 min; finally, solvent B was decreased back to 20% over 5.5 min and was held at 20% for 3.5 min.
# The procedure has been adapted from J. Agric. Food Chem. 2005, 53, 4918-4924.
# 100 μL of a solution of compound 26 at 4.5·10^−4 mol·L^−1 in acetonitrile was added to a solution containing 800 μL of phosphate buffer (73173 Fluka, pH 7) in the presence of β-glucosidase from Almonds (10 U, 100 μL of a 5.6 mg·mL^−1 solution in phosphate buffer, (G4511sigma 18.7 U per mg)) and was kept 4 h at 37° C.
# 100 μL of a solution of sergliflozin-A at 4.5·10^−4 moL·L^−1 in acetonitrile has been treated in the presence of β-glucosidase following the same process.
# In parallel, 100 μL of a solution of p-nitrophenyl-β-glucoside (compound A) at 4.5·10^−4 mol·L^−1 in phosphate buffer (73173 Fluka, pH 7) was added to a solution containing 700 μL of phosphate buffer and 100 μL of acetonitrile, with the presence of β-glucosidase from Almonds (10 U, 100 μL of a 5.6 mg·mL^−1 solution in phosphate buffer, (G4511 sigma 18.7 U per mg)) and was kept 4 h at 37° C. During the process in the presence of β-glucosidase, a yellow coloration was observed that underlines the decomposition of compound. A.
# HPLC of compound 21 (FIG. 7), compound 26 (FIG. 8) and Sergliflozin-A (FIG. 10) have been performed to follow up in the experiments the formation of compound 21 (the aglycone part) implying a degradation of the starting material.
# In order to evaluate the percentage of degradation, a calibration has been done on compound 21 giving the following results:
# Data have been plotted (Area % versus concentration) and the linear regression obtained was characterized by the equation y=53629x and a R^2=0.994. […]
# [4] = system: Mushroom Tyrosinase; assay: Inhibition of Tyrosine-Tyrosinase reaction, absorbance at 477 nm (assay e); type: biochemical; details: test compound n = 5·10^−5 mol; Solution A 1 mL, Solution B 0.5 mL, buffer 0.5 mL; witness solution 0.4354
# Experimental: Inhibition of tyrosinase, i.e. inhibition of the hydroxylation of Tyrosine into DOPA, was measured by visible spectrophotometry, and more specifically by measuring the absorbance at 477 nm, indicative of the amount of melanine produced in vitro from the Tyrosine substrate by Tyrosinase. In order to make sure that the measured absorbance is proportional to the enzymatic activity in the range of studied concentrations, five standard solutions were prepared as follows. Absorbance has been measured on a Perkin Elmer UV/Vis Spectrometer Lambda 12. Solution A (1,000 U/mL mother solution of Tyrosinase) was prepared by dissolving 40 mg of 1,250 U/mg Mushroom Tyrosinase in 1 mL 100 mM pH6.5 bis Tris buffer and QS to 50 mL with milliQ water. Bis Tris buffer (100 mM pH6.5 bis Tris buffer) was prepared by dissolving 2.09 g of Bis Tris in milliQ water and QS to 100 mL. Solution B (mother solution of Tyrosine) was prepared by dissolving 100 mg of Tyrosine in milliQ water and QS to 100 mL. The standard solutions were incubated for 2 h at 37° C., then quickly cooled to 4° C. […] The following test solutions were prepared and their absorbance was measured at 477 nm: […]
# [5] = molecular target: Mushroom Tyrosinase; assay: Tyrosinase inhibition, concentration series and IC50 (assay f); type: biochemical; details: for IC50: Concentration Tyrosinase 100 U/mL, from linear regression of % activity versus concentration; for Absorbance (477 nm): 1 h 30 at 37° C.; for % activity: witness solution = 100%
# Experimental: The protocol performed is the same as in assay e. Solution A (1,000 U/mL mother solution of Tyrosinase) was prepared by dissolving all of 50 kU Mushroom Tyrosinase in 1 mL 100 mM pH6.5 bis Tris buffer and QS to 50 mL with milliQ water. Bis Tris buffer (100 mM pH6.5 bis Tris buffer) was prepared by dissolving 2.09 g of Bis Tris in milliQ water and QS to 100 mL. pH was adjusted at 6.5 using hydrochloric acid. Solution B (mother solution of Tyrosine) was prepared by dissolving 20 mg of Tyrosine in milliQ water and QS to 20 mL. Stock solution of compound 31 was prepared as follow: 10 mg of compound 31 was dissolved in Bis Tris buffer up to 1 ml. Stock solution of β-arbutin was prepared as follow: 20 mg of compound β-arbutin was dissolved in Bis Tris buffer up to 1 ml. The solutions were incubated for 1 h 30 at 37° C., then quickly cooled to 4° C. 100 μL of each solution were deposited on 96-well plate. The absorbance of the different solutions were measured at 477 nm (Molecular Devices: Spectra Max 340PC). The different solutions were prepared as described in the different tables below and their absorbances were reported. The absorbance of witness solution (without inhibitor) was set at 100% of enzymatic activity, allowing us to determine the percentage of enzymatic activity of the different solutions. Data have been plotted (% of activity versus concentration of inhibitors) and the linear regression of the curve was used to calculate the […] of both compounds.
# [6] = system: β-glucosidase from Almonds; details: as referred in several publications; cited from earlier work
# [7] = Inhibitor Concentration 0.17 mg/mL
# [8] = Inhibitor Concentration 0.33 mg/mL
# [9] = Inhibitor Concentration 0.50 mg/mL
# [10] = Inhibitor Concentration 0.67 mg/mL
# [11] = Inhibitor Concentration 0.83 mg/mL
# [12] = Inhibitor Concentration 1.33 mg/mL
# [13] = Inhibitor Concentration 2.00 mg/mL
# [14] = Inhibitor Concentration 2.67 mg/mL
# [15] = Inhibitor Concentration 3.33 mg/mL
smiles,measurement,setting,value
CCOc1ccc(Cc2cc([C@H]3[C@H](O)[C@@H](O)[C@H](O)[C@@H](CO)C3(F)F)ccc2Cl)cc1 [Compound 16],blood glucose excursions following glucose challenge,[1]; 3 mg/kg po administered 18 hrs prior to glucose challenge (FIG. 4),still reduced blood glucose excursions
same,blood glucose levels following glucose challenge,"[1]; 1, 3 and 10 mg/kg po, normal mice, glucose 15 min after dosing (FIG. 3)",reduced blood glucose levels in a dose-dependent manner
same,duration of glucosuria,[2]; compared to Dapagliflozin (FIG. 5),> 24 h
COc1ccc(Cc2ccccc2O[C@H]2[C@H](O)[C@@H](O)[C@H](O)[C@@H](CO)C2(F)F)cc1 [Compound 26],degradation in the presence of β-glucosidase (in words),[3],no degradation occurs
OC[C@@H]1[C@@H](O)[C@H](O)[C@@H](O)[C@H](Oc2ccc(O)cc2)C1(F)F [Compound 31],Absorbance (477 nm),[4],0.1292
same,IC50,[5],328 µg/mL
same,Absorbance (477 nm),[5]; [7],0.5855
same,% activity,[5]; [7],81.55%
same,Absorbance (477 nm),[5]; [8],0.3535
same,% activity,[5]; [8],49.23%
same,Absorbance (477 nm),[5]; [9],0.255
same,% activity,[5]; [9],35.52%
same,Absorbance (477 nm),[5]; [10],0.220
same,% activity,[5]; [10],30.57%
same,Absorbance (477 nm),[5]; [11],0.200
same,% activity,[5]; [11],27.86%
Oc1ccc(O)cc1 [Hydroquinone],Absorbance (477 nm),[4],0.1528
COc1ccc(Cc2ccccc2O[C@@H]2O[C@H](CO)[C@@H](O)[C@H](O)[C@H]2O)cc1 [Sergliflozin-A],cleavage by β-glucosidase,[6],undergo cleavage
same,degradation in the presence of β-glucosidase (in words),[3],degradation occurs
same,degradation,"[3]; 4 h of incubation at 37° C. with β-glucosidase, pH 7, from HPLC area of aglycone 21",80%
CCOc1ccc(Cc2cc([C@H]3[C@H](O)[C@@H](O)[C@H](O)[C@@H](CO)[C@@H]3O)ccc2Cl)cc1 [compound 9 of WO 2009/1076550],glucosuria detected in the same time period (up to 24 hrs),[2]; 16 to 28 hours after administration (FIG. 6),none could be detected
"O=[N+]([O-])c1ccc(O[C@@H]2O[C@H](CO)[C@@H](O)[C@H](O)[C@H]2O)cc1 [compound A, p-nitrophenyl-β-glucoside]",degradation in the presence of β-glucosidase (in words),[3],decomposition
OC[C@H]1O[C@@H](Oc2ccc(O)cc2)[C@H](O)[C@@H](O)[C@@H]1O [β-Arbutin],IC50,[5],1100 µg/mL
same,Absorbance (477 nm),[5]; [10],0.5010
same,% activity,[5]; [10],66.62%
same,Absorbance (477 nm),[5]; [12],0.3040
same,% activity,[5]; [12],40.43%
same,Absorbance (477 nm),[5]; [13],0.2380
same,% activity,[5]; [13],31.65%
same,Absorbance (477 nm),[5]; [14],0.2035
same,% activity,[5]; [14],27.06%
same,Absorbance (477 nm),[5]; [15],0.1970
same,% activity,[5]; [15],26.20%
